Data as given in patent publication US20090048182A1, “Cosmetic Use of at Least One Natural Ac-N-Ser-Asp-Lys-Pro-Tetrapeptide or One of Its Analogues as Agent for Slowing Down Loss of Hair and/or Stimulating Hair Growth” (CENTRE NATIONAL DE LA RECHERCHE SCIENTIFQUE (CNRS, priority 2005, published 2009).
Residues, ends and D or L forms follow the SMILES beside them.

Legend:
[1] = system: neo-keratinocytes / epithelial sheaths of isolated hairs; assay: General morphology of histological cuts of isolated hairs (Masson Trichromium): neo-keratinocytes, epithelial sheaths; assay type: cell-based, human
Description: (§1) Study of the stimulating activity of tetrapeptide AcSDKP on the growth of isolated hairs maintained in a state of ex vivo survival. This study was conducted on 66 human hair explants obtained from scalp-plasty.
(§2) Hairs comprised of hair follicles were isolated by micro dissection and individually placed in wells (96-well culture plate) and maintained in survival for 15 days under conventional tissue culturing conditions (37° C., 5% CO2) in Williams medium.
(§3) Tetrapeptide AcSDKP added to the culture medium was tested at three concentrations: 10^−4 M, 10^−7 M and 10^−10 M. Minoxidil® (2,4-diamino 6-piperidinopyrimidine 3-oxide) at a concentration of 10^−5 M was used as a positive control.
(§4) Culture mediums containing the compounds to be tested were renewed every three days.
(§5) On D8 and D15 of treatment, six hairs from each batch (untreated control, Minoxidil®, +AcSDKP 10^−4 M, +AcSDKP 10^−7 M, +AcSDKP 10^−10 M) were removed and prepared for histological study.
(§6) Three explants from each batch were fixed in ordinary Bouin and the three other hairs were frozen and stored at −80° C.
(§7) In addition to measurements of the length of each hair, the general morphology of each hair was analysed and the expression of laminin 5 and collagen IV, two constituents of the basal membrane, was evaluated. Moreover, immunolabeling with anti-Ki67 antibodies (nuclear protein expressed in growing cells) was carried out of cells in mitosis in order to establish the mitotic index of follicle structures.
Analysis of the general morphology of histological cuts stained with Masson Trichromium focusing on the area between the opening of the sebaceous glands and the hair bulb.
Hairs cultured on D0 naturally undergo changes during survival as is observed after an in vivo graft. The restructuring effect of AcSDKP was visualised through the appearance of neo-keratinocytes along the conjunctival sheath which migrate from the bulge and to a lesser extent from the bulb, two regions where stem cells are found. […] This effect leads to clear appearance of neo-keratinocytes along the length of the hair, from the epidermis to the bulb. The structure of the neo-keratinocytes formed in this way is uniform and stratified. It varies as a function of treatment time and AcSDKP concentration. The clearest activity was found on D15 of treatment with AcSDKP at 10^−10 M.

[2] = system: laminin 5; assay: Immunolabelling of laminin 5 in isolated hairs; assay type: cell-based, human
Description: Study of the stimulating activity of tetrapeptide AcSDKP on the growth of isolated hairs maintained in a state of ex vivo survival. This study was conducted on 66 human hair explants obtained from scalp-plasty. Hairs comprised of hair follicles were isolated by micro dissection and individually placed in wells (96-well culture plate) and maintained in survival for 15 days under conventional tissue culturing conditions (37° C., 5% CO2) in Williams medium. Tetrapeptide AcSDKP added to the culture medium was tested at three concentrations: 10^−4 M, 10^−7 M and 10^−10 M. Minoxidil® (2,4-diamino 6-piperidinopyrimidine 3-oxide) at a concentration of 10^−5 M was used as a positive control. Culture mediums containing the compounds to be tested were renewed every three days. On D8 and D15 of treatment, six hairs from each batch (untreated control, Minoxidil®, +AcSDKP 10^−4 M, +AcSDKP 10^−7 M, +AcSDKP 10^−10 M) were removed and prepared for histological study. Three explants from each batch were fixed in ordinary Bouin and the three other hairs were frozen and stored at −80° C. In addition to measurements of the length of each hair, the general morphology of each hair was analysed and the expression of laminin 5 and collagen IV, two constituents of the basal membrane, was evaluated. […]

[3] = system: cells in mitosis (Ki67) in the epithelial sheath of hair; assay: Cell proliferation: anti-Ki67 immunolabeling of cells in mitosis along the epithelial sheath of isolated hairs; assay type: cell-based, human
Description: as §1, §2, §3, §4, §5, §6, §7
This study was conducted on cuts of frozen hairs.

[4] = system: collagen IV; assay: Immunolabeling of basal membrane collagen (type IV) on frozen cuts of isolated hairs; assay type: cell-based, human
Description: as §1, §2, §3, §4, §5, §6, §7
Immunolabeling of type IV collagen was carried out on frozen cuts of the control hairs and hairs treated with AcSDKP or Minoxidil® in order to quantify this constituent of the basal membrane which separates the dermal compartment from the epithelial compartment.

[5] = system: isolated human hair explants (hair follicles); assay: Growth (length) of isolated human hairs maintained in ex vivo survival; assay type: cell-based
Description: as §1, §2, §3, §4
Hairs were photographed using a microscope and a CCD camera coupled to acquisition software and archiving.
Each hair was measured on D0, D3, D6, D8, D10, D13 and D15 using a LEICA IM1000 measurement module to give measurements in μm.
Each hair was photographed and its length evaluated using software giving values in μm.

[6] = system: keratin 19 (CK19); assay: Immunolabeling of keratin 19 (CK19), epithelial stem cell marker, on frozen cuts of isolated hairs; assay type: cell-based, human
Description: as §1, §2, §3, §4, §5, §6
Immunolabeling of keratin 19 (CK19) was carried out on frozen cuts of control hairs and hairs treated with AcSDKP or Minoxidil® in order to evaluate the proportion of undifferentiated primitive cells (or even stem cells) present in the external epithelial sheaths of the hair follicles. […]

SMILES | Restructuring of the epithelial sheaths ([1]; AcSDKP in the culture medium, as of D8 of treatment) | Adherence of epithelial sheaths to collagen ([1]; D8, AcSDKP 10^−4 M) | Neo-keratinocyte sites ([1]; D8, AcSDKP 10^−4 M) | Adherence of epithelium to the underlying collagen ([1]; D8, the two active concentrations (10^−7 M and 10^−10 M)) | Neo-keratinocyte structure thickness ([1]; D15, AcSDKP 10^−4 M, 10^−7 M and especially 10^−10 M) | Laminin 5 increase in the median zone of hair ([2]; D8, AcSDKP 10^−10 M) | Expression of laminin 5 ([2]; D15, AcSDKP 10^−7 M) | Increase in number of cells in mitosis compared to control hair ([3]; 10^−10 M, D8 of treatment) | Average number of cells in mitosis per mm of hair ([3]; AcSDKP 10^−7 M, D8) | Number of cells in mitosis in treated hair compared to control hair ([3]; three concentrations tested (10^−4 M, 10^−7 M, 10^−10 M)) | Increase in collagen IV levels ([4]; D8 and D15, AcSDKP 10^−10 M) | Collagen IV expression in the bulb and median section of hair ([4]; as of D8, AcSDKP at the three concentrations tested) | Hair growth (length of hair) ([5]; 10^−10 M in culture medium, D15 of treatment) | Hair growth (length of hair shafts) ([5]; higher concentrations (10^−4 M, 10^−7 M), D15) | Increase in CK19 levels ([6]; D8 and D15, AcSDKP 10^−10 M) | Expression of CK19 compared to control hair and Minoxidil-treated hair ([6]; hair kept in survival in presence of the tetrapeptide) | Adherence of epithelial sheaths to collagen ([1]; D8, Minoxidil) | Neo-keratinocyte sites ([1]; D8, Minoxidil 10 μM) | Neo-keratinocyte structure compared to untreated hair ([1]; D15, Minoxidil 10^−5 M) | Collagen IV expression ([4]; hair treated with Minoxidil)
CC(=O)N[C@@H](CO)C(=O)N[C@@H](CC(=O)O)C(=O)N[C@@H](CCCCN)C(=O)N1CCC[C@H]1C(=O)O [AcSDKP, CH3CO-Ser-Asp-Lys-Pro-OH] (Ac-SDKP-OH) | leads to restructuring of the epithelial sheaths | more or less detached | absent | adheres fully | increasingly thicker | considerably more marked | higher | +300% | 34 per mm of hair | significantly increases the number of cells in mitosis | all the more marked | very clear increase in collagen IV | significantly stimulates hair growth | no significant difference | maximal | significantly greater | – | – | – | –
Nc1cc(N2CCCCC2)nc(N)[n+]1[O-] [Minoxidil ®, 2,4-diamino 6-piperidinopyrimidine 3-oxide, reference compound] | – | – | – | – | – | – | – | – | – | – | – | – | – | – | – | – | more or less detached | absent | slightly more structured | often less evident
